The target in one series is T1, ETA receptor (Homo sapiens, UniProt P25101).
T1 sequence (P25101 21-427): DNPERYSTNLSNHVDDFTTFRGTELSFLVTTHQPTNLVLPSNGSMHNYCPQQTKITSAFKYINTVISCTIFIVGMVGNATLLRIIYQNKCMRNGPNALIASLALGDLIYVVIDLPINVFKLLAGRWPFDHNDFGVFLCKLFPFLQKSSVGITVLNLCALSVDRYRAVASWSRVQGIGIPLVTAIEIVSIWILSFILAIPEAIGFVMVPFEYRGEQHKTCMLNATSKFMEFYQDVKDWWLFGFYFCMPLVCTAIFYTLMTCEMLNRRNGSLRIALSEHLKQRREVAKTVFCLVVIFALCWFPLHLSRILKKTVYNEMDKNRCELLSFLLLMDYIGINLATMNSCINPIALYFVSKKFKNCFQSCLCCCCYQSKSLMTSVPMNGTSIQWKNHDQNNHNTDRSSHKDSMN
The series can be described thus: Functional potency for ETA receptor. The class given is biochemical. From the text: (§1) In the above table, the physicochemical data, e.g., solubility, were obtained following standard protocols known in the field (see, e.g., Reis et al., Mini Rev Med Chem., 2010, 10(11):1071-6; Avdeef et al., Expert Opin Drug Metab Toxicol., 2005, 1(2):325-42; Bharate et al., Comb Chem High Throughput Screen., 2016, 19(6):461-9; and Jain et al., J Pharm Biomed Anal., 2013, 86:11-35.); and the biochemical data, i.e., potency for ETA/ETB, were obtained following the protocols known in the field (see, e.g., Kirkby et al., Br J Pharmacol., 2008, 153(6):1105-19; and Maguire et al., Br J Pharmacol., 2014, 171(24):5555-72.).

The nature of the next series: Permeability (PAMPA). The class given is in vitro ADME.
Excerpt: as §1
Background: In PAMPA a lipid-coated filter parts donor from acceptor wells.

A short description of series [1]: Pharmacokinetics after topical or oral administration in the rat. It is filed as in vivo, Brown Norway rats. How it is done: After the administrations, the animals (N=2) were euthanized at different time points (e.g. 4 and 8 hours) and tissues were collected for analysis. List of tissues collected include plasma, retina/retinal pigment epithelium (RPE)/choroid, vitreous humor and aqueous humor.

The nature of series [2]: Pharmacokinetics after topical administration in the rabbit. It is filed as in vivo, Dutch-belted rabbits. As to conditions: single topical eye drop 100 μg, 10 minutes, 2 and 7 hours. Here is the method:
To determine the pharmacokinetic properties of Edonentan following topical administration in the rabbit, rabbits (Dutch-belted rabbits) received an eye drop in both eyes (100 μg of Edonentan, 35 μL dose volume/eye). After the administrations, the animals (N=2) were euthanized at different time points (e.g. 10 minutes (immediately after pot-dose), 2 and 7 hours) and tissues were collected for analysis. List of tissues collected include plasma, retina, vitreous humor and bulbar conjunctiva.

In series [3] the test system is laser-induced glaucoma eye. The series can be described thus: Laser-induced glaucoma non-human primate, intraocular pressure after topical administration. It is filed as in vivo, rhesus macaque, Macaca Mulatta. As to conditions: 50 μL eyedrop 2 mg/mL. Here is the method:
Non-human primates (rhesus macaque, Macaca Mulatta) were obtained for this study. One eye of each animal underwent induction of elevation of intraocular pressure (TOP) by repeated laser photocoagulation of the trabecular meshwork. Imaging sessions were repeated to monitor the optic nerve head (ONH) and retinal structural changes. A single dose of 0.5% Timolol or a single dose of 2 mg/mL Edonentan was topically administered to three non-human primates that have laser-induced glaucoma in their right eyes (OD) with 1-week wash-out in a randomized order.

SMILES strings stand for the structures.

With `Cc1onc(NS(=O)(=O)c2ccccc2-c2ccc(-c3ncco3)cc2CN(C)C(=O)CC(C)(C)C)c1C` [Edonentan, N-[[2′-[[(4,5-dimethyl-3-isoxazolyl)amino]sulfonyl]-4-(2-oxazolyl)[1,1′-biphenyl]-2-yl]methyl]-N,3,3-trimethylbutanamide], the “Functional potency for ETA and ETB receptors (rating)” value at ETA receptor is given as “High potency”. Further, at ETA receptor, the “Specificity ETA vs ETB (rating)” value was “High specificity”. In addition, the “Permeability (rating)” value in the series “Permeability (PAMPA)” is “Mid-High”. For the same compound, the “Detection in aqueous humor after oral administration” value in series [1] (oral, 17 mg/kg) is listed as “detectable”. For the same compound, the “Detection in retina/RPE/choroid and vitreous humor after oral administration” value in series [1] (oral, 1.7 and 17 mg/kg) is “detectable”. In series [1] (topical eye drop 100 μg, 4 and 8 hours), the “Detection in retina/RPE/choroid, aqueous humor and vitreous humor” value is listed as “detected”. In series [2], the “Detection in plasma, retina, vitreous humor and bulbar conjunctiva” value is recorded as “detected in all tissues examined at all timepoints”. The “IOP reduction from pre-dose to post-dose” value is recorded as “about 10%” in series [3] (Non-human Primate 1, contralateral healthy eye, 120 minutes); “about 60%” in series [3] (Non-human Primate 1, experimental glaucoma eye, 120 minutes); “about 20%” in series [3] (Non-human Primate 2, contralateral healthy eye, 15 minutes); “about 0%” in series [3] (Non-human Primate 2, contralateral healthy eye, 120 minutes); “about 50%” in series [3] (Non-human Primate 2, experimental glaucoma eye, 15 minutes); “about 30%” in series [3] (Non-human Primate 2, experimental glaucoma eye, 120 minutes). Also, the “IOP reduction from pre-dose to post-dose” value is given as “about 10%” in series [3] (Non-human Primate 3, contralateral healthy eye, 15 minutes); “about 40%” in series [3] (Non-human Primate 3, contralateral healthy eye, 120 minutes); “about 40%” in series [3] (Non-human Primate 3, experimental glaucoma eye, 15 minutes); “about 40%” in series [3] (Non-human Primate 3, experimental glaucoma eye, 120 minutes).

Values taken from patent US20240058265A1, “TREATMENT OF OCULAR DISEASES USING ENDOTHELIN RECEPTOR ANTAGONISTS” (Perfuse Therapeutics, Inc., priority 2021, published 2024).
